Measured values published in patent US20260028330A1, “HETEROARYL CARBOXAMIDE AND RELATED GPR84 ANTAGONISTS AND USES THEREOF” (LIMINAL BIOSCIENCES LIMITED, priority 2022, published 2026).
pIC50: −log10 of the molar value.

Target: T1, human GPR84 receptor (Homo sapiens, UniProt Q9NQS5)
T1 construct: host or cells: HEK293 cells, transient transfection
Experiment: Gαi biosensor BRET assay in transfected HEK293 cells (antagonism of GPR84 agonist ZQ-16)
Type: cell-based
Settings: 200 nmol/L ZQ-16; for inhibition at 10 µM / inhibition at 2 µM: HEK293, single concentration; for inhibition at 10 µM: code F = 10 μM; for inhibition at 2 µM: code A = 2 μM
Source text: Background—The following assays can be used for determination of GPR84 activation in living HEK293 cells. The Gαi BRET biosensor (Gagnon et al., 2018; Gales et al., 2006. Nat Struct Mol Biol. 13, 778-86; Saulieres et al., 2012. Nat Chem Biol. 8, 622-30) allows to directly monitor GPR84-mediated activation of Gαi. The Gαi biosensor consists of a Rluc8-tagged Gαi2 subunit, a GFP10-tagged Gγ2 subunit, and an untagged Gβ1. Agonist stimulation and GPR84 activation triggers a physical separation between the RLuc8-Gαi donor and the GFP10-Gγ2 acceptor, resulting in a decrease in BRET signal whose amplitude is correlated to ligand efficacy (Gales et al., 2006). Moreover, signaling functions of GPCRs are tightly regulated by endocytosis, the targeting of receptors to endosomes and their sorting to lysosomes or recycling to the plasma membrane. The early endosomes (EEs) trafficking assay (Namkung et al., 2016. Nat Commun. 7, 12178) uses Rluc8-tagged GPR84 and Renilla GFP (rGFP) attached to the FYVE domain from human endofin/zinc finger FYVE domain-containing protein 16, which binds phosphatidylinositol 3-phosphate in EEs. Agonist stimulation of GPR84-Rluc8 leads to trafficking of the receptor to EEs, and ensuing increase of the donor concentration relative to the rGFP-FYVE acceptor anchored in the same cellular compartment, and thus results in an increase in BRET signal.
Plasmids—The cDNA clones for human GPR84 receptor, human Gαi2, Gβ1, and Gγ2 were obtained from the cDNA Resource Center (www.cdna.org). GFP10 (F64L, S147P, S202F and H231L variant of Aequorea victoria Green Fluorescent Protein) gBlocks gene fragments (Integrated DNA Technologies, IA) and linker were inserted in frame at the N-terminus of human Gγ2. Rluc8 (A55T, C124A, S130A, K136R, A143M, M185V, M253L, and S287L variant of the Renilla reniformis luciferase) gBlocks gene fragment was inserted with linkers in frame in between residues 91 and 92 of Gα2 or at the C-terminus of GPR84. The FYVE domain from human endofin (residues Q739 to K806) attached in frame at the C terminus of a humanized Renilla GFP (rGFP), were synthesized as gBlocks gene fragments.
Bioluminescence Resonance Energy Transfer (BRET) Measurement—HEK293 cells were transfected with GPR84-Rluc8 and rGFP-FYVE for the EEs trafficking biosensor or with GPR84, Gαi2-Rluc8, GFP10-Gγ2, and Gβ1 for the Gαi biosensor. The following day, transiently transfected cells were seeded in 96-well white clear bottom microplates coated with poly-D-lysine and left in culture for 24 hours. Cells were washed once with Tyrode's buffer (140 mmol/L NaCl, 1 mmol/L CaCl2, 2.7 mmol/L KCl, 0.49 mmol/L MgCl2, 0.37 mmol/L NaH2PO4, 5.6 mmol/L glucose, 12 mmol/L NaHCO3, and 25 mmol/L HEPES, pH 7.5) before performing assays in Tyrode's buffer. Test compounds were incubated with cells for 5 (Gui) or 15 (EEs) minutes at 37° C. before addition of 200 nmol/L of the GPR84 agonist ZQ-16 (2-(Hexylthio)-6-hydroxy-4(3H)-pyrimidinone) for 5 minutes at room temperature (Gui) or 30 minutes at 37° C. (EEs). The Rluc8 substrate coelenterazine 400A (Prolume, Lakeside, AZ) was added at a final concentration of 5 μmol/L and BRET readings were collected using an Infinite M1000 microplate reader (Tecan, Morrisville, NC). BRET^2 readings between Rluc8 and GFP10 or rGFP were collected by sequential integration of the signals detected in the 370 to 450 nm (Rluc8) and 510 to 540 nm (GFP10, rGFP) windows. The BRET signal was calculated as the ratio of light emitted by acceptor (GFP10, rGFP) over the light emitted by donor (Rluc8). The values were corrected to net BRET by subtracting the background BRET signal obtained in cells transfected with Rluc8 constructs alone. Ligand-promoted net BRET values were calculated by subtracting vehicle-induced net BRET from ligand-induced net BRET.

T1 sequence (Q9NQS5 whole entry): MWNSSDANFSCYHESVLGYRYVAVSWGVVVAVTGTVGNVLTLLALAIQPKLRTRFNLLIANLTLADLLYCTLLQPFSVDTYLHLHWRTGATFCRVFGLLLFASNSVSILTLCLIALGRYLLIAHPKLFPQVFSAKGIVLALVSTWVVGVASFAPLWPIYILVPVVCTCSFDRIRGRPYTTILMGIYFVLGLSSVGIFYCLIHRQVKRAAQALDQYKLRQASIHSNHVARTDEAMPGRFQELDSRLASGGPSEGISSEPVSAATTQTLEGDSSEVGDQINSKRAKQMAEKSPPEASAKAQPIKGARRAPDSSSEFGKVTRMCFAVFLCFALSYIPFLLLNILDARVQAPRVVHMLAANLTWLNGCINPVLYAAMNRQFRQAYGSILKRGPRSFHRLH

| Structure (SMILES) | inhibition at 10 µM | pIC50 | inhibition at 2 µM |
| --- | --- | --- | --- |
| Cc1ccc(C#CC2CC2)cc1Nc1cn(CC2OCC3(CC3)CO2)cn1 [Compound I-15] | ≤ 25% | – | – |
| Cc1ccc(C#CC2CC2)cc1C(=O)N(C)c1cn(CC2OCC3(CC3)CO2)nn1 [Compound I-16] | ≤ 25% | – | – |
| Cc1ccc(C#CC2CC2)cc1N(C)C(=O)c1cn(CC2OCC3(CC3)CO2)nn1 [Compound I-17] | – | ≥ 6.52 | > 75% |
| Cc1cc(C#CC2CC2)ccc1NC(=O)c1cn(CC2OCC3(CC3)CO2)nn1 [Compound I-18] | ≤ 25% | – | – |
| Cc1cc(C#CC2CC2)ccc1C(=O)N(C)c1cn(CC2OCC3(CC3)CO2)nn1 [Compound I-19] | 50 to 75% | – | – |
| Cc1cc(C#CC2CC2)ccc1C(=O)Nc1cn(CC2OCC3(CC3)CO2)nn1 [Compound I-20] | ≤ 25% | – | – |
| Cc1cc(C#CC2CC2)ccc1N(C)C(=O)c1cn(CC2OCC3(CC3)CO2)nn1 [Compound I-21] | > 75% | ≥ 6.52 | – |
| Cc1cc(C#CC2CC2)ccc1CN(C)c1cn(CC2OCC3(CC3)CO2)nn1 [Compound I-22] | > 75% | – | – |
| CN(C(=O)c1cn(CC2OCC3(CC3)CO2)nn1)c1cccc(C#CC2CC2)c1 [Compound I-23] | > 75% | 6.00 to 6.52 | – |
| Cc1ccc(C#CC2CC2)cc1N(C)C(=O)c1cn(CCC(=O)N(C)C)nn1 [Compound I-24] | ≤ 25% | – | – |
| O=C(c1cn(CC2OCC3(CC3)CO2)nn1)N1CCc2c(C#CC3CC3)cccc21 [Compound I-25] | – | – | ≤ 25% |
| CN(C)c1ccc(C#CC2CC2)cc1N(C)C(=O)c1cn(CC2OCC3(CC3)CO2)nn1 [Compound I-26] | > 75% | 6.00 to 6.52 | – |
| Cc1cc(OCC(=O)N(C)C)ccc1C(=O)N(C)c1cc(C#CC2CC2)ccc1C [Compound I-27] | ≤ 25% | – | – |
| O=C(c1cn(CC2OCC3(CC3)CO2)nn1)N1CCCc2c(C#CC3CC3)cccc21 [Compound I-28] | 50 to 75% | – | – |
| CN(C(=O)c1cn(CC2OCC3(CC3)CO2)nn1)c1ccc(C#CC2CC2)cc1F [Compound I-29] | – | ≥ 6.52 | > 75% |
| Cc1ccccc1NC(=O)c1cn(CC2OCC3(CC3)CO2)nn1 [Compound I-30] | ≤ 25% | – | – |
| CN(C(=O)c1cn(CC2OCC3(CC3)CO2)nn1)c1cc(C#CC2CC2)ccc1F [Compound I-31] | > 75% | 5.52 to 6.00 | – |
| Cc1cc(C#CC2CC2)cc(F)c1N(C)C(=O)c1cn(CC2OCC3(CC3)CO2)nn1 [Compound I-32] | > 75% | ≥ 6.52 | – |
| Cc1ccccc1N(C)C(=O)c1cn(CC2OCC3(CC3)CO2)nn1 [Compound I-33] | ≤ 25% | – | – |
| Cc1ccc(C#CC2CC2)cc1N(C)C(=O)c1ncc(OCC(=O)N(C)C)cc1C [Compound I-34] | ≤ 25% | – | – |
| Cc1ccc(C#CC2CC2)cc1N(C)C(=O)c1c(C)cc(OCC(=O)N(C)C)cc1C [Compound I-35] | 25 to 50% | – | – |
| Cc1ccc(C#CC2CC2)nc1N(C)C(=O)c1cn(CC2OCC3(CC3)CO2)nn1 [Compound I-36] | 25 to 50% | – | – |
| Cc1ccc(C#CC2CC2)c(F)c1N(C)C(=O)c1cn(CC2OCC3(CC3)CO2)nn1 [Compound I-37] | > 75% | ≥ 6.52 | – |
| CN(C(=O)c1cn(CC2OCC3(CC3)CO2)nn1)c1ccc(C#CC2CC2)cc1Br [Compound I-38] | – | ≥ 6.52 | > 75% |
| Cc1cc(C#CC2CC2)ccc1NCc1cn(CC2OCC3(CC3)CO2)nn1 [Compound I-39] | 25 to 50% | – | – |
| Cc1cc(C#CC2CC2)cc(C)c1NC(=O)c1cn(CC2OCC3(CC3)CO2)nn1 [Compound I-41] | ≤ 25% | – | – |
| O=C(Nc1c(F)cc(C#CC2CC2)cc1F)c1cn(CC2OCC3(CC3)CO2)nn1 [Compound I-42] | ≤ 25% | – | – |
| O=C(Nc1cc(C#CC2CC2)ccc1C1CC1)c1cn(CC2OCC3(CC3)CO2)nn1 [Compound I-45] | ≤ 25% | – | – |
| Cc1cc(C#CC2CC2)ccc1OC(=O)c1cn(CC2OCC3(CC3)CO2)nn1 [Compound I-46] | 25 to 50% | – | – |
| Cc1cc(C#CC2CC2)ccc1N(C(=O)c1cn(CC2OCC3(CC3)CO2)nn1)C1CC1 [Compound I-83] | – | ≥ 6.52 | > 75% |

Further lines, results first:

| inhibition at 10 µM | pIC50 | inhibition at 2 µM | Structure (SMILES) |
| --- | --- | --- | --- |
| > 75% | – | – | Cc1cc(C#CC2CC2)ccc1N(C)Cc1cn(CC2OCC3(CC3)CO2)nn1 [Compound I-40] |
| – | ≥ 6.52 | > 75% | CN(C(=O)c1cn(CC2OCC3(CC3)CO2)nn1)c1c(F)cc(C#CC2CC2)cc1F [Compound I-43] |
| > 75% | 6.00 to 6.52 | – | CN(C(=O)c1cn(CC2OCC3(CC3)CO2)nn1)c1cc(C#CC2CC2)ccc1Br [Compound I-44] |
| > 75% | 6.00 to 6.52 | – | CN(C(=O)c1cn(CC2OCC3(CC3)CO2)nn1)c1cc(C#CC2CC2)ccc1C1CC1 [Compound I-47] |
| > 75% | – | – | Cc1ccc(C#CC2CC2)c2c1N(C(=O)c1cn(CC3OCC4(CC4)CO3)nn1)CCC2 [Compound I-48] |
| 25 to 50% | – | – | CN(C(=O)c1cn(CC2OCC3(CC3)CO2)nn1)c1cc(C#CC2CC2)ccc1O [Compound I-49] |
| ≤ 25% | – | – | Cc1ccc(N(C)C(=O)c2cn(CC3OCC4(CC4)CO3)nn2)nc1C#CC1CC1 [Compound I-50] |
| > 75% | – | – | CN(Cc1ccc(C#CC2CC2)cc1C1CC1)c1cn(CC2OCC3(CC3)CO2)nn1 [Compound I-51] |
| 25 to 50% | – | – | Cc1cc(C#CC2CC2)cc2c1C(N(C)c1cn(CC3OCC4(CC4)CO3)nn1)CC2 (stereo not shown) [Compound I-53] |
| > 75% | – | – | Cc1ccc(C#CC2CC2)cc1N(C)S(=O)(=O)c1cn(CC2OCC3(CC3)CO2)nn1 [Compound I-55] |
| > 75% | – | – | Cc1cc(C#CC2CC2)ccc1N(C)S(=O)(=O)c1cn(CC2OCC3(CC3)CO2)nn1 [Compound I-56] |
| – | ≥ 6.52 | > 75% | CN(C(=O)c1cn(CC2OCC3(CC3)CO2)cn1)c1ccc(C#CC2CC2)cc1F [Compound I-59] |
| > 75% | 6.00 to 6.52 | – | Cc1cc(C#CC2CC2)cc(C)c1N(C)C(=O)c1cn(CC2OCC3(CC3)CO2)nn1 [Compound I-60] |
| 50 to 75% | – | – | Cc1c(N(C)C(=O)c2ccc(C#CC3CC3)cc2)nnn1CC1OCC2(CC2)CO1 [Compound I-61] |
| ≤ 25% | – | – | Cc1c(NC(=O)c2ccc(C#CC3CC3)cc2)nnn1CC1OCC2(CC2)CO1 [Compound I-62] |
| ≤ 25% | – | – | Cc1c(N(C)C(=O)c2cccc(C#CC3CC3)c2)nnn1CC1OCC2(CC2)CO1 [Compound I-63] |
| ≤ 25% | – | – | Cc1c(NC(=O)c2cccc(C#CC3CC3)c2)nnn1CC1OCC2(CC2)CO1 [Compound I-64] |
| – | – | ≤ 25% | Cc1cc(C#CC2CC2)c2c(c1)CCC2N(C)c1cn(CC2OCC3(CC3)CO2)nn1 (stereo not shown) [Compound I-81] |
| ≤ 25% | – | – | CN(c1ccc(C#CC2CC2)cc1)c1cn(CC2OCC(C)(C)CO2)nn1 [Compound I-82] |
| – | ≥ 6.52 | > 75% | Cc1cc(C#CC2CC2)ccc1N(C(=O)c1cn(CC2OCC3(CC3)CO2)nn1)C(C)C [Compound I-84] |
| 25 to 50% | – | – | Cc1cc(C#CC2CC2)ccc1/N=C(\OC(C)C)c1cn(CC2OCC3(CC3)CO2)nn1 [Compound I-85] |
